Reference: US7247633B2, “Pyrimidine compounds and their use” (Biovitrum AB, priority 2000, dated 2007)
Structures can show the parent of a compound that is named as a salt.

Experiments:
human 5-HT2c receptor = target: T1, human 5-HT2c receptor (Homo sapiens, UniProt P28335); test: 5-HT2c receptor affinity assay (displacement of 3H-labelled 5-HT, Scintillation Proximity Assay); details: membranes of HEK293 cells stably expressing human 5-HT2c receptor; 3H-5-HT; non-specific binding 5 μM mianserin
T1 construct: expressed in transfected cells
T1 sequence (P28335 33-458): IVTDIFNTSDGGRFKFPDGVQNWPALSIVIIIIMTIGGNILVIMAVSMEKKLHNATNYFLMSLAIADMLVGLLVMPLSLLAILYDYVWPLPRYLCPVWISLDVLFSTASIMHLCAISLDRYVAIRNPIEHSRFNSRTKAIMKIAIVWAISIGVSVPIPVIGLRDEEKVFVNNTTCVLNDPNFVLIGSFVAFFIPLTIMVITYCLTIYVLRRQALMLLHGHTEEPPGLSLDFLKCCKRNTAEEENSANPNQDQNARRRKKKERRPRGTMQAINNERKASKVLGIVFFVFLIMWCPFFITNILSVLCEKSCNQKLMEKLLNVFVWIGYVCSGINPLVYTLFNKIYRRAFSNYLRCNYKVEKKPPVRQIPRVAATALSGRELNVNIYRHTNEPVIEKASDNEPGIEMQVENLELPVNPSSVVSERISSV
Procedure: The 5-HT2c receptor affinity of compounds in the Examples was determined in competition experiments, where the ability of each compound in serial dilution to displace ^3H-labelled 5-HT, bound to membranes prepared from a transfected HEK293 cell line stably expressing the human 5-HT2c receptor protein, was monitored by Scintillation Proximity Assay technology. Non-specific binding was defined using 5 μM mianserin.

[1] = obese subjects, after 2 weeks of treatment; cited from earlier work
5-HT2c receptor [2] = target: T2, 5-HT2c receptor (Mus musculus, UniProt P34968); details: mice that express the normal 5-HT2c receptor; cited from earlier work
T2 construct: mice that express the normal 5-HT2c receptor; host or cells: mice, in vivo
T2 sequence (P34968 33-459): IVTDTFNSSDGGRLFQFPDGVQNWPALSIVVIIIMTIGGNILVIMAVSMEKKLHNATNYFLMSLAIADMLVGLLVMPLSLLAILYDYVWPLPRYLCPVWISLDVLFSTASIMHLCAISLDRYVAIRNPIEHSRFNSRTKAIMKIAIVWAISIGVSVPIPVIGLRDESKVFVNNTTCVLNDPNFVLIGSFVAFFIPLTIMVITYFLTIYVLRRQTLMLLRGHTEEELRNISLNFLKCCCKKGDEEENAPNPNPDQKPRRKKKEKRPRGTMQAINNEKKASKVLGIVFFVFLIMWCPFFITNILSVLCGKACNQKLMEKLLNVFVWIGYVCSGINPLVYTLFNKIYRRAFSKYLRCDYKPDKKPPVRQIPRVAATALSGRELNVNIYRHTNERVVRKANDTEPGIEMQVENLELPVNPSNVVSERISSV

5-HT2c receptor [3] = details: mice expressing the mutated inactive form of the 5-HT2c receptor; cited from earlier work
[4] = controlled studies; cited from earlier work

With `CC(Oc1cncc(N2CCNCC2)n1)c1cccc(F)c1` (centres unmarked) [Example 2, 2-[1-(3-Fluorophenyl)ethoxy]-6-(1-piperazinyl)pyrazine] the Ki (human 5-HT2c receptor) was 8 nM.
With `c1ccc2c(c1)CCCC2Oc1cncc(N2CCNCC2)n1` (centres unmarked) (as salt: acetate) [Example 9, 6-(1-Piperazinyl)-2-pyrazinyl 1,2,3,4-tetrahydro-1-naphthalenyl ether] the melting point was 160 to 162 °C.
Molecule `COc1ccccc1COc1cncc(N2CCNCC2)n1` (as salt: hydrochloride) [Example 5, 2-[(2-Methoxybenzyl)oxy]-6-(1-piperazinyl)pyrazine] has a melting point of 171 to 173 °C.
Molecule `COc1cc(COc2cncc(N3CCNCC3)n2)cc(OC)c1` (as salt: maleate) [Example 68, 2-[(3,5-Dimethoxybenzyl)oxy]-6-(1-piperazinyl)pyrazine] has a melting point of 134 to 137 °C.
`FCCOc1cncc(N2CCNCC2)n1` [Example 23, 2-(2-Fluoroethoxy)-6-(1-piperazinyl)pyrazine] gave a Ki (human 5-HT2c receptor) of 478 nM.
`COc1cccc(CCOc2cncc(OC3CCNCC3)n2)c1` [Example 45, 2-[2-(3-Methoxyphenyl)ethoxy]-6-(4-piperidinyloxy)pyrazine] gave a melting point of 86 to 87 °C.
Work on `Clc1cccc(CCOc2cncc(N3CCNCC3)n2)c1` (as salt: acetate) [Example 8, 2-[2-(3-Chlorophenyl)ethoxy]-6-(1-piperazinyl)pyrazine] yielded a melting point of 118 to 119 °C.
`c1ccc2c(c1)OCCC2Oc1cncc(N2CCNCC2)n1` (centres unmarked) (as salt: maleate) [Example 26, 2-(3,4-Dihydro-2H-chromen-4-yloxy)-6-(1-piperazinyl)pyrazine] gave a melting point of 179.5 to 182 °C.
For `c1ccc(CCOc2cncc(N3CCNCC3)n2)cc1` (as salt: maleate) [Example 14, 2-(2-Phenylethoxy)-6-(1-piperazinyl)pyrazine], the melting point was 166 to 168 °C.
In the case of `Clc1cccc(N2CCNCC2)c1` [mCPP, m-chlorophenylpiperazine], the body weight [1] is given as “slight but sustained reduction in body weight”, the food intake (5-HT2c receptor [2]) is given as “reduces food intake” and the food intake (5-HT2c receptor [3]) is given as “lacks activity”.
With `c1ccc(COc2cncc(N3CCNCC3)n2)cc1` (as salt: maleate) [Example 20, 2-(Benzyloxy)-6-(1-piperazinyl)pyrazine] the melting point was 155 to 156 °C.
`c1cc(OCc2cccs2)nc(N2CCNCC2)c1` [Example 18, 1-[6-(2-Thienylmethoxy)-2-pyridinyl]piperazine] gave a Ki (human 5-HT2c receptor) of 92 nM.
In the case of `c1cncc(COc2cncc(N3CCNCC3)n2)c1` (as salt: acetate) [Example 11, 2-(1-Piperazinyl)-6-(3-pyridinylmethoxy)pyrazine], the melting point is reported as 98 to 99 °C.
`c1cncc(CCOc2cncc(N3CCNCC3)n2)c1` (as salt: acetate) [Example 12, 2-(1-Piperazinyl)-6-[2-(3-pyridinyl)ethoxy]pyrazine] gave a melting point of 90 to 91 °C.
For `CCN[C@@H](C)Cc1cccc(C(F)(F)F)c1` [dexfenfluramine], the weight reduction [4] is listed as “exhibited weight reduction”.
With `Fc1cc(F)cc(COc2cncc(N3CCNCC3)n2)c1` (as salt: acetate) [Example 6, 2-[(3,5-Difluorobenzyl)oxy]-6-(1-piperazinyl)pyrazine] the melting point was 70 to 72 °C.
With `c1ccc(CCCCCOc2cncc(OC3CCNCC3)n2)cc1` [Example 48, 2-[(5-Phenylpentyl)oxy]-6-(4-piperidinyloxy)pyrazine] the Ki (human 5-HT2c receptor) was 37 nM.
With `Fc1ccc(COc2cncc(N3CCNCC3)n2)cc1` [Example 42, 2-[(4-Fluorobenzyl)oxy]-6-(1-piperazinyl)pyrazine] the melting point was 183 °C.
Molecule `c1ccc2c(c1)ccn2CCOc1cncc(N2CCNCC2)n1` (as salt: maleate) [Example 28, 2-[2-(1H-Indol-1-yl)ethoxy]-6-(1-piperazinyl)pyrazine] has a melting point of 160.5 to 163 °C.
For `c1ccc(COc2cncc(N3CCNCC3)n2)cc1` [Example 20, 2-(Benzyloxy)-6-(1-piperazinyl)pyrazine], the Ki (human 5-HT2c receptor) was 28 nM.
Work on `c1coc(-c2cncc(N3CCNCC3)n2)c1` [Example 15, 2-(2-Furyl)-6-(1-piperazinyl)pyrazine] yielded a Ki (human 5-HT2c receptor) of 616 nM.
`c1ccc2c(CCOc3cncc(N4CCNCC4)n3)c[nH]c2c1` [Example 29, 2-[2-(1H-Indol-3-yl)ethoxy]-6-(1-piperazinyl)pyrazine] showed a melting point of 133 to 135 °C.
In the case of `c1ccc(COc2ccnc(N3CCNCC3)n2)cc1` [Example 32, 4-(Benzyloxy)-2-(1-piperazinyl)pyrimidine], the Ki (human 5-HT2c receptor) is reported as 48 nM.
For `FC(F)(F)c1ccc(COc2cncc(N3CCNCC3)n2)cc1` (as salt: acetate) [Example 10, 2-(1-Piperazinyl)-6-{[4-(trifluoromethyl)benzyl]oxy}pyrazine], the melting point was 84 to 85 °C.
For `COc1ccc(CCOc2cncc(N3CCNCC3)n2)cc1` (as salt: maleate) [Example 69, 2-[2-(4-Methoxyphenyl)ethoxy]-6-(1-piperazinyl)pyrazine], the melting point was 149 to 151 °C.
In the case of `COc1cccc(COc2cncc(N3CCNCC3)n2)c1` (as salt: acetate) [Example 4, 2-[(3-Methoxybenzyl)oxy]-6-(1-piperazinyl)pyrazine], the melting point is reported as 111 to 113 °C.
Work on `c1ccc(-c2ccc(COc3cncc(N4CCNCC4)n3)cc2)cc1` (as salt: acetate) [Example 7, 2-([1,1′-Biphenyl]-4-ylmethoxy)-6-(1-piperazinyl)pyrazine] yielded a melting point of 102 to 104 °C.
With `c1cncc(CCOc2cncc(N3CCNCC3)n2)c1` [Example 12, 2-(1-Piperazinyl)-6-[2-(3-pyridinyl)ethoxy]pyrazine] the Ki (human 5-HT2c receptor) was 197 nM.
In the case of `c1cc2c(cc1COc1cncc(N3CCNCC3)n1)OCO2` (as salt: acetate) [Example 3, 2-(1,3-Benzodioxol-5-ylmethoxy)-6-(1-piperazinyl)pyrazine], the melting point is reported as 124 to 127 °C.
In the case of `CNCCC(Oc1ccc(C(F)(F)F)cc1)c1ccccc1` (centres unmarked) [fluoxetine], the weight reduction [4] is listed as “exhibited weight reduction”.
